The test system of one assay is MCF7 cells. Description: Anti-proliferation (viability) of MCF7 cells (Table 7, FIG. 2B). The format is cell-based. The following applies: Homo sapiens, MCF7, MCF7 cells, 3-6 days, 10-point serial dilution; read-out: GI IC50 in MCF-7.
Another assay deals with Calu-1 cells. The assay can be described thus: Anti-proliferation (viability) of NSCLC Calu-1 cells, 3 days (Table 7, FIG. 2B). The format is cell-based. The following applies: Homo sapiens, 72 h; Calu-1 cells, 3 days, 10-point serial dilution; read-out: GI IC50 in Calu-1. In short, it runs like this: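 Seed cells, add compound in ten serially diluted concentrations, then incubate (Calu-1: 3 days; T47D: 6 days) before measuring viability.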

Structures are written as SMILES.

Turning to `CC(C)Nc1ccc(C(=O)Nc2ccc(N(C)C)nn2)c(NC2CCC(C(=O)N3CCC(N4CCN(c5ccc(Nc6ncc7ccc(=O)n(C8CCCC8)c7n6)nc5)CC4)C3)CC2)n1` (stereo not drawn) [CPD-535, 2-((4-(3-(4-(6-((8-cyclopentyl-7-oxo-7,8-dihydropyrido[2,3-d]pyrimidin-2-yl)amino)pyridin-3-yl)piperazin-1-yl)pyrrolidine-1-carbonyl)cyclohexyl)amino)-N-(6-(dimethylamino)pyridazin-3-yl)-6-(isopropylamino)nicotinamide], the figures for the IC50 in the assay on MCF7 cells and with Calu-1 cells were 50 to 100 nM and 10 to 50 nM, respectively.
As for `CC(=O)c1c(C)c2cnc(Nc3ccc(CN4CCN(C(=O)CN5CC6(CC(Nc7nc(NC(C)C)ccc7C(=O)Nc7ccc(N(C)C)nn7)C6)C5)CC4)cn3)nc2n(C2CCCC2)c1=O` [CPD-538, 2-((2-(2-(4-((6-((6-acetyl-8-cyclopentyl-5-methyl-7-oxo-7,8-dihydropyrido[2,3-d]pyrimidin-2-yl)amino)pyridin-3-yl)methyl)piperazin-1-yl)-2-oxoethyl)-2-azaspiro[3.3]heptan-6-yl)amnion)-N-(6-(dimethylamino)pyridazin-3-yl)-6-(isopropylamino)nicotinamide], the half-maximal inhibitory concentration (IC50) with MCF7 cells is 50 to 100 nM; with Calu-1 cells it was ≤ 10 nM.
In the case of `CC(=O)c1c(C)c2cnc(Nc3ccc(CN4CCN(C(=O)CN5CCC(Nc6nc(NC(C)C)ccc6C(=O)Nc6ccc(N(C)C)nn6)CC5)CC4)cn3)nc2n(C2CCCC2)c1=O` [CPD-541, 2-((1-(2-(4-((6-((6-acetyl-8-cyclopentyl-5-methyl-7-oxo-7,8-dihydropyrido[2,3-d]pyrimidin-2-yl)amino)pyridin-3-yl)methyl)piperazin-1-yl)-2-oxoethyl)piperidin-4-yl)amino)-N-(6-(dimethylamino)pyridazin-3-yl)-6-(isopropylamino)nicotinamide], the figures for the IC50 in the assay on MCF7 cells and with Calu-1 cells were < 50 nM and ≤ 10 nM, respectively.
Taken in the same sequence, the figures for `CC(=O)c1c(C)c2cnc(Nc3ccc(N4CCC(N5CCC[C@H]5C(=O)NCC5CC(Nc6nc(NC(C)C)ccc6C(=O)Nc6ccc(N(C)C)nn6)C5)CC4)cn3)nc2n(C2CCCC2)c1=O` (stereo partly drawn) [CPD-542, (S)-2-((3-((1-(1-(6-((6-acetyl-8-cyclopentyl-5-methyl-7-oxo-7,8-dihydropyrido[2,3-d]pyrimidin-2-yl)amino)pyridin-3-yl)piperidin-4-yl)pyrrolidine-2-carboxamido)methyl)cyclobutyl)amino)-N-(6-(dimethylamino)pyridazin-3-yl)-6-(isopropylamino)nicotinamide] were > 100 nM and ≤ 10 nM.
Taken in the same sequence, the figures for `CC(=O)c1c(C)c2cnc(Nc3ccc(N4CCC(N5CCC[C@H]5C(=O)NC5CC6(C5)CC(Nc5nc(NC(C)C)ccc5C(=O)Nc5ccc(N(C)C)nn5)C6)CC4)cn3)nc2n(C2CCCC2)c1=O` (stereo partly drawn) [CPD-543, (S)-2-((6-(1-(1-(6-((6-acetyl-8-cyclopentyl-5-methyl-7-oxo-7,8-dihydropyrido[2,3-d]pyrimidin-2-yl)amino)pyridin-3-yl)piperidin-4-yl)pyrrolidine-2-carboxamido)spiro[3.3]heptan-2-yl)amino)-N-(6-(dimethylamino)pyridazin-3-yl)-6-(isopropylamino)nicotinamide] were < 50 nM and ≤ 10 nM.
On to `CC(=O)c1c(C)c2cnc(Nc3ccc(N4CCC(N5CCC[C@H]5C(=O)N5CC6(CC(Nc7nc(NC(C)C)ccc7C(=O)Nc7ccc(N(C)C)nn7)C6)C5)CC4)cn3)nc2n(C2CCCC2)c1=O` [CPD-544, 2-((2-((1-(6-((6-acetyl-8-cyclopentyl-5-methyl-7-oxo-7,8-dihydropyrido[2,3-d]pyrimidin-2-yl)amino)pyridin-3-yl)piperidin-4-yl)-L-prolyl)-2-azaspiro[3.3]heptan-6-yl)amino)-N-(6-(dimethylamino)pyridazin-3-yl)-6-(isopropylamino)nicotinamide], for which the results for the IC50 in the assay on MCF7 cells and in the assay with Calu-1 cells were < 50 nM and ≤ 10 nM, respectively.
For the compound `CC(=O)c1c(C)c2cnc(Nc3ccc(N4CCN(C5CCN(C(=O)N6CC7(CCC(Nc8nc(NC(C)C)ccc8C(=O)Nc8ccc(N(C)C)nn8)C7)C6)C5)CC4)cn3)nc2n(C2CCCC2)c1=O` (stereo not drawn) [CPD-545, 2-((2-(3-(4-(6-((6-acetyl-8-cyclopentyl-5-methyl-7-oxo-7,8-dihydropyrido[2,3-d]pyrimidin-2-yl)amino)pyridin-3-yl)piperazin-1-yl)pyrrolidine-1-carbonyl)-2-azaspiro[3.4]octan-6-yl)amino)-N-(6-(dimethylamino)pyridazin-3-yl)-6-(isopropylamino)nicotinamide], the IC50 is > 100 nM in the assay on MCF7 cells and 10 to 50 nM in the assay on Calu-1 cells.
`CC(=O)c1c(C)c2cnc(Nc3ccc(CN4CCN(CC(=O)N5CCC6(CCC(Nc7nc(NC(C)C)ccc7C(=O)Nc7cc(C)n(C)n7)C6)C5)CC4)cn3)nc2n(C2CCCC2)c1=O` (stereo not drawn) [CPD-547, 2-((2-(2-(4-((6-((6-acetyl-8-cyclopentyl-5-methyl-7-oxo-7,8-dihydropyrido[2,3-d]pyrimidin-2-yl)amino)pyridin-3-yl)methyl)piperazin-1-yl)acetyl)-2-azaspiro[4.4]nonan-7-yl)amino)-N-(1,5-dimethyl-1H-pyrazol-3-yl)-6-(isopropylamino)nicotinamide]: the figures for the half-maximal inhibitory concentration (IC50) with MCF7 cells and with Calu-1 cells were < 50 nM and ≤ 10 nM, respectively.
`CC(=O)c1c(C)c2cnc(Nc3ccc(CN4CCN(CC(=O)N5CCC6(CCC(Nc7nc(NC(C)C)ccc7C(=O)Nc7cn(C)c(C8CC8)n7)C6)C5)CC4)cn3)nc2n(C2CCCC2)c1=O` (stereo not drawn) [CPD-548, 2-((2-(2-(4-((6-((6-acetyl-8-cyclopentyl-5-methyl-7-oxo-7,8-dihydropyrido[2,3-d]pyrimidin-2-yl)amino)pyridin-3-yl)methyl)piperazin-1-yl)acetyl)-2-azaspiro[4.4]nonan-7-yl)amino)-N-(2-cyclopropyl-1-methyl-1H-imidazol-4-yl)-6-(isopropylamino)nicotinamide]: the results for the 50% inhibitory concentration (IC50) in the assay on MCF7 cells and with Calu-1 cells were < 50 nM and ≤ 10 nM, respectively.
For `CC(=O)c1c(C)c2cnc(Nc3ccc(CN4CCN(CC(=O)N5CCC6(CCC(Nc7nc(NC(C)C)ccc7C(=O)Nc7cc8n(n7)CCC8)C6)C5)CC4)cn3)nc2n(C2CCCC2)c1=O` (stereo not drawn) [CPD-549, 2-((2-(2-(4-((6-((6-acetyl-8-cyclopentyl-5-methyl-7-oxo-7,8-dihydropyrido[2,3-d]pyrimidin-2-yl)amino)pyridin-3-yl)methyl)piperazin-1-yl)acetyl)-2-azaspiro[4.4]nonan-7-yl)amino)-N-(5,6-dihydro-4H-pyrrolo[1,2-b]pyrazol-2-yl)-6-(isopropylamino)nicotinamide], in that order: < 50 nM and ≤ 10 nM.
In the case of `CC(=O)c1c(C)c2cnc(Nc3ccc(N4CCN(C5CCN(C(=O)[C@H]6CC[C@H](Nc7nc(NC(C)C)ccc7-c7nc8cnc(N(C)C)cc8[nH]7)CC6)C5)CC4)cn3)nc2n(C2CCCC2)c1=O` (stereo partly drawn) [CPD-552, trans-6-acetyl-8-cyclopentyl-2-((5-(4-(1-(trans-4-((3-(6-(dimethylamino)-3H-imidazo[4,5-c]pyridin-2-yl)-6-(isopropylamino)pyridin-2-yl)amino)cyclohexane-1-carbonyl)pyrrolidin-3-yl)piperazin-1-yl)pyridin-2-yl)amino)-5-methylpyrido[2,3-d]pyrimidin-7(8H)-one], the half-maximal inhibitory concentration (IC50) is > 100 nM in the assay on MCF7 cells and ≥ 50 nM with Calu-1 cells.
For `CCN1CCc2cc(-c3nc(Nc4ccc(CN5CCN(CC(=O)N6CC7(CC(Nc8nc(NC(C)C)ccc8C(=O)Nc8ccc(N(C)C)nn8)C7)C6)CC5)cn4)ncc3F)ccc2C1=O` [CPD-553, N-(6-(dimethylamino)pyridazin-3-yl)-2-((2-(2-(4-((6-((4-(2-ethyl-1-oxo-1,2,3,4-tetrahydroisoquinolin-6-yl)-5-fluoropyrimidin-2-yl)amino)pyridin-3-yl)methyl)piperazin-1-yl)acetyl)-2-azaspiro[3.3]heptan-6-yl)amino)-6-(isopropylamino)nicotinamide], in that order: > 100 nM and ≥ 50 nM.
Consider `CCN1CCc2cc(-c3nc(Nc4ccc(CN5CCN(CC(=O)NC6CC7(C6)CC(Nc6nc(NC(C)C)ccc6C(=O)Nc6ccc(N(C)C)nn6)C7)CC5)cn4)ncc3F)ccc2C1=O` (stereo not drawn) [CPD-554, N-(6-(dimethylamino)pyridazin-3-yl)-2-((6-(2-(4-((6-((4-(2-ethyl-1-oxo-1,2,3,4-tetrahydroisoquinolin-6-yl)-5-fluoropyrimidin-2-yl)amino)pyridin-3-yl)methyl)piperazin-1-yl)acetamido)spiro[3.3]heptan-2-yl)amino)-6-(isopropylamino)nicotinamide], for which the half-inhibitory concentration (IC50) was > 100 nM in the assay on MCF7 cells and ≥ 50 nM in the assay on Calu-1 cells.
As to `CC(=O)c1c(C)c2cnc(Nc3ccc(N4CCN(C5CCN(C(=O)N6CC7(CCC(Nc8nc(NC(C)C)ccc8C(=O)Nc8ccc(N(C)C)nn8)CC7)C6)C5)CC4)cn3)nc2n(C2CCCC2)c1=O` (stereo not drawn) [CPD-555, 2-((2-(3-(4-(6-((6-acetyl-8-cyclopentyl-5-methyl-7-oxo-7,8-dihydropyrido[2,3-d]pyrimidin-2-yl)amino)pyridin-3-yl)piperazin-1-yl)pyrrolidine-1-carbonyl)-2-azaspiro[3.5]nonan-7-yl)amino)-N-(6-(dimethylamino)pyridazin-3-yl)-6-(isopropylamino)nicotinamide], the values for the half-maximal inhibitory concentration (IC50) with MCF7 cells and in the assay on Calu-1 cells were 50 to 100 nM and ≤ 10 nM, respectively.
For `CC(=O)c1c(C)c2cnc(Nc3ccc(N4CCN(C5CCN(C(=O)C6CCC7(CC(Nc8nc(NC(C)C)ccc8C(=O)Nc8ccc(N(C)C)nn8)C7)C6)C5)CC4)cn3)nc2n(C2CCCC2)c1=O` (stereo not drawn) [CPD-556, 2-((6-(3-(4-(6-((6-acetyl-8-cyclopentyl-5-methyl-7-oxo-7,8-dihydropyrido[2,3-d]pyrimidin-2-yl)amino)pyridin-3-yl)piperazin-1-yl)pyrrolidine-1-carbonyl)spiro[3.4]octan-2-yl)amino)-N-(6-(dimethylamino)pyridazin-3-yl)-6-(isopropylamino)nicotinamide], the IC50 with MCF7 cells was < 50 nM; in the assay with Calu-1 cells it was ≤ 10 nM.
